The source of these data is patent EP2385948B1, “FUSED THIAZOLO AND OXAZOLO PYRIMIDINONES” (Torrent Pharmaceuticals Limited, priority 2009, dated 2011).

Structures are written as SMILES. Bounds are passed on as bounds.

The subject of one data set is erythropoietin. Put plainly: In vitro erythropoietin induction (ELISA of cell culture supernatant). Conditions: Hep3B cell line, 50 uM, 16 hours, relative to vehicle control.
Experimental: Hep3B cell line (ATCC HB8064) was employed. Induction of erythropoietin was carried out for the indicated dose of compounds for 16 hours duration. At the end of 16 hours, cell culture medium was collected and centrifuged to remove any debris. Supernatant obtained was analyzed for erythropoietin by ELISA (R&D systems, USA). The results were expressed as fold induction as compared to vehicle control.
In the case of `O=C([O-])CNC(=O)c1c(O)nc2sc3c(n2c1=O)CCCC3.[Na+]`, the EPO fold induction result is listed as “++ (++ indicates 2-4 fold)”.
For `O=C(O)CNC(=O)c1c(O)nc2sc3c(n2c1=O)CCCC3` [Compound 1, [(2-Hydroxy-4-oxo-5,6,7,8-tetrahydro-4H-9-thia-1,4a-diaza-fluorene-3-carbonyl)-amino]-acetic acid], the EPO fold induction result is listed as “+++ (+++ indicates 5-8 fold)”.

The data set is the same for the next values; noted with them: Homo sapiens, Hep3B, 16 h, read-out: EPO fold induction, Hep3B cell line, 200 uM, 16 hours, relative to vehicle control.
On to `CCOC(=O)N1CCc2c(sc3nc(O)c(C(=O)NCC(=O)O)c(=O)n23)C1` [Compound 2, 3-(Carboxymethyl-carbamoyl)-2-hydroxy-4-oxo-5,8-dihydro-4H,6H-9-thia-1,4a,7-triaza-fluorene-7-carboxylic acid ethyl ester], for which the fold induction at 200 µM fell in the range of 5 to 8.
Turning to `CS(=O)(=O)N1CCc2c(sc3nc(O)c(C(=O)NCC(=O)O)c(=O)n23)C1` [Compound 3, [(2-Hydroxy-7-methanesulfonyl-4-oxo-5,6,7,8-tetrahydro-4H-9-thia-1,4a,7-triaza-fluorene-3-carbonyl)-amino]-acetic acid], the fold induction at 200 µM was in the range of 2 to 4.
The same measure, in the same setting: under `CC(C)CC(=O)N1CCc2c(sc3nc(O)c(C(=O)NCC(=O)O)c(=O)n23)C1` [Compound 4, {[2-Hydroxy-7-(3-methyl-butyryl)-4-oxo-5,6,7,8-tetrahydro-4H-9-thia-1,4a,7-triaza-fluorene-3-carbonyl]-amino}-acetic acid] stands 2 to 4; under `CC(C)S(=O)(=O)N1CCc2c(sc3nc(O)c(C(=O)NCC(=O)O)c(=O)n23)C1` [Compound 5, {[2-Hydroxy-4-oxo-7-(propane-2-sulfonyl)-5,6,7,8-tetrahydro-4H-9-thia-1,4a,7-triaza-fluorene-3-carbonyl]-amino}-acetic acid], 2 to 4; under `O=C(NC1(C(=O)O)CCCC1)c1c(O)nc2sc3c(n2c1=O)CCCC3` [Compound 6, 1-[(2-Hydroxy-4-oxo-5,6,7,8-tetrahydro-4H-9-thia-1,4a-diaza-fluorene-3-carbonyl)-amino]-cyclopentanecarboxylic acid], less than 2.
Same read-out and setting: under `Cc1ccc(S(=O)(=O)N2CCc3c(sc4nc(O)c(C(=O)NCC(=O)O)c(=O)n34)C2)cc1` [Compound 7, {[2-Hydroxy-4-oxo-7-(toluene-4-sulfonyl)-5,6,7,8-tetrahydro-4H-9-thia-1,4a,7-triaza-fluorene-3-carbonyl]-amino}-acetic acid] stands 2 to 4.
The same measure, in the same setting: under `O=C(O)CNC(=O)c1c(O)nc2sc3c(n2c1=O)CCN(C(=O)Nc1ccccc1)C3` [Compound 8, [(2-Hydroxy-4-oxo-7-phenylcarbamoyl-5,6,7,8-tetrahydro-4H-9-thia-1,4a,7-triaza-fluorene-3-carbonyl)-amino]-acetic acid] stands 2 to 4; under `O=C(O)CNC(=O)c1c(O)nc2sc3c(n2c1=O)CCN(C(=O)C1CC1)C3` [Compound 9, [(7-Cyclopropanecarbonyl-2-hydroxy-4-oxo-5,6,7,8-tetrahydro-4H-9-thia-1,4a,7-triaza-fluorene-3-carbonyl)-amino]-acetic acid], 5 to 8.
Take `O=C(O)CNC(=O)c1c(O)nc2sc3c(n2c1=O)CCC3` [Compound 11, [(2-Hydroxy-4-oxo-7,8-dihydro-4H,6H-cyclopenta[4,5]thiazolo[3,2-a]pyrimidine-3-carbonyl)-amino]-acetic acid]: the fold induction at 200 µM was 5 to 8.
Same read-out and setting: the figure for `CC(C)(C)C1CCc2c(sc3nc(O)c(C(=O)NCC(=O)O)c(=O)n23)C1` (stereo not drawn) [Compound 13, [(7-tert-Butyl-2-hydroxy-4-oxo-5,6,7,8-tetrahydro-4H-9-thia-1,4a-diaza-fluorene-3-carbonyl)-amino]-acetic acid] is less than 2; for `O=C(O)CCNC(=O)c1c(O)nc2sc3c(n2c1=O)CCC3` [Compound 14, 3-[(2-Hydroxy-4-oxo-7,8-dihydro-4H,6H-cyclopenta[4,5]thiazolo[3,2-a]pyrimidine-3-carbonyl)-amino]-propionic acid] it is 2 to 4.
Regarding `CC(C)(C)C1CCc2c(sc3nc(O)c(C(=O)NCCC(=O)O)c(=O)n23)C1` (stereo not drawn) [Compound 15, 3-[(7-tert-Butyl-2-hydroxy-4-oxo-5,6,7,8-tetrahydro-4H-9-thia-1,4a-diaza-fluorene-3-carbonyl)-amino]-propionic acid], the fold induction at 200 µM was less than 2.
Turning to `O=C(O)CNC(=O)c1c(O)nc2sc3c(n2c1=O)CCN(C(=O)c1ccc(F)cc1)C3` [Compound 16, {[7-(4-Fluoro-benzoyl)-2-hydroxy-4-oxo-5,6,7,8-tetrahydro-4H-9-thia-1,4a,7-triaza-fluorene-3-carbonyl]-amino}-acetic acid], the fold induction at 200 µM was in the range of 5 to 8.
The same measure, in the same setting: the figure for `O=C(O)CNC(=O)c1c(O)nc2sc3c(n2c1=O)CCN(S(=O)(=O)c1ccc(Cl)s1)C3` [Compound 17, {[7-(5-Chloro-thiophene-2-sulfonyl)-2-hydroxy-4-oxo-5,6,7,8-tetrahydro-4H-9-thia-1,4a,7-triaza-fluorene-3-carbonyl]-amino}-acetic acid] is 2 to 4; for `O=C(O)CNC(=O)c1c(O)nc2sc3c(n2c1=O)CCN(c1ccc(C(F)(F)F)cn1)C3` [Compound 18, {[2-Hydroxy-4-oxo-7-(5-trifluoromethyl-pyridin-2-yl)-5,6,7,8-tetrahydro-4H-9-thia-1,4a,7-triaza-fluorene-3-carbonyl]-amino}-acetic acid] it is 9 to 16.
The same measure, in the same setting: the figure for `O=C(O)CNC(=O)c1c(O)nc2sc3c(n2c1=O)CCN(S(=O)(=O)c1ccc(OC(F)(F)F)cc1)C3` [Compound 19, {[2-Hydroxy-4-oxo-7-(4-trifluoromethoxy-benzenesulfonyl)-5,6,7,8-tetrahydro-4H-9-thia-1,4a,7-triaza-fluorene-3-carbonyl]-amino}-acetic acid] is 2 to 4; for `CC(C)(C)C(=O)N1CCc2c(sc3nc(O)c(C(=O)NCC(=O)O)c(=O)n23)C1` [Compound 20, {[7-(2,2-Dimethyl-propionyl)-2-hydroxy-4-oxo-5,6,7,8-tetrahydro-4H-9-thia-1,4a,7-triaza-fluorene-3-carbonyl]-amino}-acetic acid] it is 5 to 8; for `CCCCc1ccc(C(=O)N2CCc3c(sc4nc(O)c(C(=O)NCC(=O)O)c(=O)n34)C2)cc1` [Compound 21, {[7-(4-Butyl-benzoyl)-2-hydroxy-4-oxo-5,6,7,8-tetrahydro-4H-9-thia-1,4a,7-triaza-fluorene-3-carbonyl]-amino}-acetic acid] it is 9 to 16.
As for `O=C(O)CNC(=O)c1c(O)nc2sc3c(n2c1=O)CCN(C(=O)c1ccc(OC(F)(F)F)cc1)C3` [Compound 22, {[2-Hydroxy-4-oxo-7-(4-trifluoromethoxy-benzoyl)-5,6,7,8-tetrahydro-4H-9-thia-1,4a,7-triaza-fluorene-3-carbonyl]-amino}-acetic acid], the fold induction at 200 µM fell in the range of 5 to 8.
The same measure, in the same setting: under `O=C(O)CNC(=O)c1c(O)nc2sc3c(n2c1=O)CCN(C(=S)Nc1ccc(F)cc1)C3` [Compound 24, {[7-(4-Fluoro-phenylthiocarbamoyl)-2-hydroxy-4-oxo-5,6,7,8-tetrahydro-4H-9-thia-1,4a,7-triaza-fluorene-3-carbonyl]-amino}-acetic acid] stands 5 to 8; under `CC(C)NC(=S)N1CCc2c(sc3nc(O)c(C(=O)NCC(=O)O)c(=O)n23)C1` [Compound 25, [(2-Hydroxy-7-isopropylthiocarbamoyl-4-oxo-5,6,7,8-tetrahydro-4H-9-thia-1,4a,7-triaza-fluorene-3-carbonyl)-amino]-acetic acid], 2 to 4; under `O=C(O)CNC(=O)c1c(O)nc2sc3c(n2c1=O)CCN(C(=O)OCc1ccccc1)C3` [Compound 26, 3-(Carboxymethyl-carbamoyl)-2-hydroxy-4-oxo-5,8-dihydro-4H,6H-9-thia-1,4a,7-triaza-fluorene-7-carboxylic acid benzyl ester], 9 to 16.
On the same count and under the same terms, under `O=C(O)CNC(=O)c1c(O)nc2sc3c(n2c1=O)CCN(C(=O)Cc1ccc(Cl)cc1)C3` [Compound 28, ({7-[2-(4-Chloro-phenyl)-acetyl]-2-hydroxy-4-oxo-5,6,7,8-tetrahydro-4H-9-thia-1,4a,7-triaza-fluorene-3-carbonyl}-amino)-acetic acid] stands 9 to 16; under `O=C(O)CNC(=O)c1c(O)nc2sc3c(n2c1=O)CCN(C(=O)CC1CCCC1)C3` [Compound 29, {[7-(2-Cyclopentyl-acetyl)-2-hydroxy-4-oxo-5,6,7,8-tetrahydro-4H-9-thia-1,4a,7-triaza-fluorene-3-carbonyl]-amino}-acetic acid], 9 to 16; under `O=C(O)CCNC(=O)c1c(O)nc2sc3c(n2c1=O)CCCCC3` [Compound 30, 3-[(2-Hydroxy-4-oxo-6,7,8,9-tetrahydro-4H,5H-10-thia-1,4a-diaza-benzo[a]azulene-3-carbonyl)-amino]-propionic acid], less than 2.
Same read-out and setting: the figure for `COc1ccc(CN2CCc3c(sc4nc(O)c(C(=O)NCC(=O)O)c(=O)n34)C2)cc1` [Compound 31, {[2-Hydroxy-7-(4-methoxy-benzyl)-4-oxo-5,6,7,8-tetrahydro-4H-9-thia-1,4a,7-triaza-fluorene-3-carbonyl]-amino}-acetic acid] is 5 to 8; for `O=C(O)CNC(=O)c1c(O)nc2sc3c(n2c1=O)CCN(C(=O)c1ccc(Cl)nc1)C3` [Compound 33, {[7-(6-Chloro-pyridine-3-carbonyl)-2-hydroxy-4-oxo-5,6,7,8-tetrahydro-4H-9-thia-1,4a,7-triaza-fluorene-3-carbonyl]-amino}-acetic acid] it is 2 to 4; for `O=C(O)CNC(=O)c1c(O)nc2sc3c(n2c1=O)CCN(c1ccc(Cl)nn1)C3` [Compound 35, {[7-(6-Chloro-pyridazin-3-yl)-2-hydroxy-4-oxo-5,6,7,8-tetrahydro-4H-9-thia-1,4a,7-triaza-fluorene-3-carbonyl]-amino}-acetic acid] it is less than 2.
